The text below walks through data of patent publication US20110146678A1, “PROCESS FOR IMPROVING CRYSTALLINITY” (priority 2008, published 2011).

The structures appear in SMILES notation.

Holding throughout (type): physicochemical
A short description of data set [1]: Cohesive-adhesive balance (CAB) by AFM colloid probe. The note with it: for adhesive FP-Lactose interactions, times greater than cohesive FP-FP interactions (CAB analysis): equivalent contact geometry, 20° C., 45% RH; for adhesiveness to lactose (FIG. 29): comparison between batches. From the text: The cohesive-adhesive balance (CAB) approach of the AFM colloid probe technique is a development that enables direct quantification of the cohesive and adhesive nature—“the force balance” of an API within a formulation. It is a commercially available screening tool in determining the cohesive/adhesive force interactions between potential formulation components using milligrams or less of material.
The CAB approach measures the forces of interaction between API particles, mounted as colloid AFM probes, and well-defined crystalline surfaces of the API and carrier substrates. A CAB plot generated from the interaction of a number of probes allows a characteristic measurement of the cohesive nature of the API, in relation to its adhesive propensity with an excipient material to be quantified. The development of the CAB approach has overcome a number of the limitations associated with conventional AFM colloid probe methodologies, including issues regarding instrumental validation and the need to determine the true area of contact of the interacting surfaces. […] Drug-carrier combinations with a higher CAB ratio, such as >1, results in a higher fine particle fraction (FPF) upon aerosolisation, despite potential difference between the carriers in terms of size, shape, roughness and flowability. Drug-carrier combinations with a lower CAB ratio, such as, <1 result in greater […] of the active particle to the carrier, therefore the active particle is more likely to remain attached to the carrier. This means that in an inhaled composition, the active particle which remains attached to the carrier particle may not reach the lung and may be deposited in the throat or on the tongue. Preferably, the particles produced according to the present invention have much lower cohesiveness than particles prepared by other methods including micronization and milling. With respect to a measure of cohesiveness, since all substrates will be different with respect to their cohesive and adhesive properties, the CAB ratio is a dimensionless value which is a more useful measure for comparison. Preferably, the particles produced according to the present invention have CAB ratios with the carrier particles of 0.8-1.3, more preferably 0.9-1.2, more preferably, 1.0- 1.1. This is a careful balance between the cohesion of the drug with itself and the adhesion of the drug with the carrier.
The cohesive-adhesive balance (CAB) of micronized Fluticasone Propionate (FP) and batches of FP engineered by the method of the current invention (samples 2 and 3) and by a different method exemplified in WO 2008/114052 A1 (sample 4), as described in Example 1, were determined with respect to crystalline substrates of FP and lactose monohydrate. The CAB force balance of the different batches with respect to the crystalline substrates was determined as follows:
Particles (n=3) of all batches of FP were attached onto standard V-shaped tipless cantilevers (DNP-020, DI, CA, USA) using an epoxy resin glue (Araldite, Cambridge, UK).
Smooth crystals of lactose were produced on cooling of a heated saturated droplet sandwiched between cover slips. Smooth drug crystals were produced using sitting-drop anti-solvent crystallisation, in which the active was dissolved in acetone and the anti-solvent employed was water.
Individual force curves (n=1024) were conducted over a 10 μm×10 μm area at a scan rate of 4 Hz and a compressive load of 40 nN. Environmental conditions were maintained at a constant temperature of 20° C. (±1.5 ° C.) and relative humidity 45±3%.

A short description of data set [2]: Specific surface area by five-point BET nitrogen adsorption. On the procedure:
The surface roughness and surface area of micronized Fluticasone Propionate (FP), sample 3 of FP prepared by the current invention and sample 4 of FP, as described in Example 2, were determined using atomic force microscopy (AFM) and BET surface area analysis, respectively. The roughness of imaged areas was quantified using the mean (Ra) and root mean square (Rq) of the variations in the height of the imaged surface. Furthermore, the surface area of samples was determined by a five-point BET nitrogen adsorption analysis. The specific surface areas of the FP samples were measured using a Gemini 2360 surface area analyser (Micromeritics Instrument Corporation, Norcross, USA). A five-point BET nitrogen adsorption analysis was carried out after degassing the samples for 24 hours in a FlowPrep 060 degasser (Micromeritics Instrument Corporation, Norcross, USA).

A short description of data set [3]: Surface roughness by TappingMode AFM. As to conditions: 1 μm×1 μm areas, SD in brackets; for Ra(± nm): mean surface roughness; for Rq(± nm): root mean square roughness. On the procedure:
The degree of corrugation and surface morphology of samples was quantified using AFM. The surface topography and roughness measurements of particles of this invention were investigated using a Nanoscope IIIa controller, a Multimode AFM and a J-type scanner (all DI, Santa Babara, Calif., USA). All AFM surface topography images were recorded in Tapping Mode operation, in which, imaging was conducted using TESP Olympus tips (Di, Cambridge, UK) at a scan rate of 1 Hz. Surface roughness measurements were analysed over a 1 μm×1 μm area. To quantify the variations in the surface properties of the crystal surfaces, the root-mean-squared surface roughness measurement (Rq) and the mean surface roughness (Ra) of the height deviations of the surface asperities were computed.
The surface roughness and surface area of micronized Fluticasone Propionate (FP), sample 3 of FP prepared by the current invention and sample 4 of FP, as described in Example 2, were determined using atomic force microscopy (AFM) and BET surface area analysis, respectively. The roughness of imaged areas was quantified using the mean (Ra) and root mean square (Rq) of the variations in the height of the imaged surface. Furthermore, the surface area of samples was determined by a five-point BET nitrogen adsorption analysis.
The surface topography of the FP samples was investigated with TappingMode™ atomic force microscopy (AFM) using a Multimode AFM, J-type scanner, Nanoscope IIIa controller (all from DI, Cambridge, UK) and a silicon tip (model number OMCL-AC240TS, Olympus, Japan) to image three randomly selected 1 μm×1 μm square areas on the surface of particles of each material with a resolution of 512×512 pixels and a scan rate of 1 Hz. The roughness of imaged areas was quantified using the mean (Ra) and root mean square (Rq) of the variations in the height of the imaged surface, as calculated by the AFM software using the following equations: […]
where np is the number of points in the image and yi is the distance of point i from the centre line.

Turning to `CCC(=O)O[C@]1(C(=O)SCF)[C@H](C)C[C@H]2[C@@H]3C[C@H](F)C4=CC(=O)C=C[C@]4(C)[C@@]3(F)[C@@H](O)C[C@@]21C` [Sample 2, Fluticasone propionate], the “adhesion values (FP-lactose interaction)” value in data set [1] (AFM force measurement) is on record as 128-169 nN. For the same compound, the “adhesive FP-Lactose interactions, times greater than cohesive FP-FP interactions (CAB analysis)” value (shortened to “adhesive FP-Lactose interactions”) in data set [1] (listed as sample 2 FP) is reported as 1.17.

For `CCC(=O)O[C@]1(C(=O)SCF)[C@H](C)C[C@H]2[C@@H]3C[C@H](F)C4=CC(=O)C=C[C@]4(C)[C@@]3(F)[C@@H](O)C[C@@]21C` [Sample 3, Fluticasone propionate], the “adhesion values (FP-lactose interaction)” value in data set [1] (AFM force measurement) is reported as 35-89 nN. Further, in data set [1] (listed as sample 3 FP), the “adhesive FP-Lactose interactions” value is 1.16. Further, the “Surface Area” value in data set [2] is given as 10.79 m^2/g. In addition, in data set [3], the “Ra(± nm)” value was 53.79 (2.11) nm and the “Rq(± nm)” value was 72.11 (1.35) nm.

For `CCC(=O)O[C@]1(C(=O)SCF)[C@H](C)C[C@H]2[C@@H]3C[C@H](F)C4=CC(=O)C=C[C@]4(C)[C@@]3(F)[C@@H](O)C[C@@]21C` [Sample 4, fluticasone propionate, reference compound], in data set [1] (AFM force measurement), the “adhesion values (FP-lactose interaction)” value is 400-800 nN. The “adhesiveness to lactose (FIG. 29)” value in data set [1] was “least adhesive to lactose and SX”. Besides, the “adhesive FP-Lactose interactions” value in data set [1] (listed as sample 4 FP) is reported as “almost equal”. Also, in data set [2], the “Surface Area” value was determined as 7.49 m^2/g. Moreover, in data set [3], the “Ra(± nm)” value is 11.20 (1.55) nm and the “Rq(± nm)” value was 16.52 (3.13) nm.

On to `CCC(=O)O[C@]1(C(=O)SCF)[C@H](C)C[C@H]2[C@@H]3C[C@H](F)C4=CC(=O)C=C[C@]4(C)[C@@]3(F)[C@@H](O)C[C@@]21C` [micronized FP, Fluticasone Propionate], for which, in data set [1] (AFM force measurement), the adhesion values lay within 169 to 249 nN. For the same compound, in data set [1], the “adhesiveness to lactose (FIG. 29)” value is on record as “significantly more adhesive to lactose” and the “adhesive FP-Lactose interactions” value is 1.36. Moreover, the “Surface Area” value in data set [2] was found to be 6.55 m^2/g. Further, in data set [3], the “Ra(± nm)” value was 30.97 (12.25) nm and the “Rq(± nm)” value is on record as 45.07 (11.76) nm.
